Results taken from ChEMBL document CHEMBL1275577, “Study of the in vitro activities of rifaximin and comparator agents against 536 anaerobic intestinal bacteria from the perspective of potential utility in pathology involving bowel flora” (Antimicrob Agents Chemother, 2009).

Experiments:
Type in all cases: functional
[1] = tested on: Bacteroides uniformis; test: Antimicrobial activity against Bacteroides uniformis by Wadsworth agar dilution method in presence of beta-lactamase inhibitor Sulbactam
[2] = tested on: Ruminococcus torques; test: Antimicrobial activity against Ruminococcus torques by Wadsworth agar dilution method in presence of beta-lactamase inhibitor Sulbactam; details: Mediterraneibacter torques
[3] = tested on: Clostridium cocleatum; test: Antimicrobial activity against Clostridium cocleatum by Wadsworth agar dilution method in presence of beta-lactamase inhibitor Sulbactam; details: Thomasclavelia cocleata
[4] = tested on: Porphyromonas somerae; test: Antimicrobial activity against Porphyromonas somerae by Wadsworth agar dilution method in presence of beta-lactamase inhibitor Sulbactam
[5] = tested on: Bifidobacterium dentium; test: Antimicrobial activity against Bifidobacterium dentium by Wadsworth agar dilution method in presence of beta-lactamase inhibitor Sulbactam
[6] = tested on: Bilophila wadsworthia; test: Antimicrobial activity against Bilophila wadsworthia by Wadsworth agar dilution method in presence of 1% pyruvic acid and beta-lactamase inhibitor Sulbactam
[7] = tested on: [Clostridium] innocuum; test: Antimicrobial activity against Clostridium innocuum by Wadsworth agar dilution method in presence of beta-lactamase inhibitor Sulbactam
[8] = tested on: Limosilactobacillus fermentum; test: Antimicrobial activity against Lactobacillus fermentum by Wadsworth agar dilution method in presence of beta-lactamase inhibitor Sulbactam
[9] = tested on: Clostridium glycolicum; test: Antimicrobial activity against Clostridium glycolicum by Wadsworth agar dilution method in presence of beta-lactamase inhibitor Sulbactam; details: Terrisporobacter glycolicus
[10] = tested on: Ruminococcus gnavus; test: Antimicrobial activity against Ruminococcus gnavus by Wadsworth agar dilution method in presence of beta-lactamase inhibitor Sulbactam; details: Mediterraneibacter gnavus
[11] = tested on: Bacteroides nordii; test: Antimicrobial activity against Bacteroides nordii by Wadsworth agar dilution method in presence of beta-lactamase inhibitor Sulbactam
[12] = tested on: Desulfovibrio piger; test: Antimicrobial activity against Desulfovibrio piger by Wadsworth agar dilution method in presence of beta-lactamase inhibitor Sulbactam
[13] = tested on: Porphyromonas; test: Antimicrobial activity against Porphyromonas sp. by Wadsworth agar dilution method in presence of beta-lactamase inhibitor Sulbactam
[14] = tested on: Hoylesella loescheii; test: Antimicrobial activity against Prevotella loescheii by Wadsworth agar dilution method in presence of beta-lactamase inhibitor Sulbactam
[15] = tested on: Clostridium nexile; test: Antimicrobial activity against Clostridium nexile by Wadsworth agar dilution method in presence of beta-lactamase inhibitor Sulbactam; details: Faecalimonas nexilis
[16] = tested on: Anaerococcus prevotii; test: Antimicrobial activity against Anaerococcus prevotii by Wadsworth agar dilution method in presence of beta-lactamase inhibitor Sulbactam
[17] = tested on: Ruminococcus obeum; test: Antimicrobial activity against Ruminococcus obeum by Wadsworth agar dilution method in presence of beta-lactamase inhibitor Sulbactam; details: Blautia obeum
[18] = tested on: Coprobacillus cateniformis; test: Antimicrobial activity against Coprobacillus cateniformis by Wadsworth agar dilution method in presence of beta-lactamase inhibitor Sulbactam
[19] = tested on: Porphyromonas uenonis; test: Antimicrobial activity against Porphyromonas uenonis by Wadsworth agar dilution method in presence of beta-lactamase inhibitor Sulbactam
[20] = Antimicrobial activity against Bifidobacterium pseudocatenulatum by Wadsworth agar dilution method in presence of beta-lactamase inhibitor Sulbactam
[21] = tested on: Tissierella praeacuta; test: Antimicrobial activity against Clostridium hastiforme by Wadsworth agar dilution method in presence of beta-lactamase inhibitor Sulbactam
[22] = tested on: Clostridium symbiosum; test: Antimicrobial activity against Clostridium symbiosum by Wadsworth agar dilution method in presence of beta-lactamase inhibitor Sulbactam
[23] = tested on: Lactobacillus jensenii; test: Antimicrobial activity against Lactobacillus jensenii by Wadsworth agar dilution method in presence of beta-lactamase inhibitor Sulbactam
[24] = tested on: Clostridium aminobutyricum; test: Antimicrobial activity against Clostridium aminobutyricum by Wadsworth agar dilution method in presence of beta-lactamase inhibitor Sulbactam
[25] = tested on: Fusobacterium nucleatum; test: Antimicrobial activity against Fusobacterium nucleatum by Wadsworth agar dilution method in presence of beta-lactamase inhibitor Sulbactam
[26] = tested on: Lactobacillus sp.; test: Antimicrobial activity against Lactobacillus sp. by Wadsworth agar dilution method in presence of beta-lactamase inhibitor Sulbactam
[27] = tested on: Eubacterium rectale; test: Antimicrobial activity against Eubacterium rectale by Wadsworth agar dilution method in presence of beta-lactamase inhibitor Sulbactam; details: Agathobacter rectalis
[28] = tested on: Clostridium beijerinckii; test: Antimicrobial activity against Clostridium beijerinckii by Wadsworth agar dilution method in presence of beta-lactamase inhibitor Sulbactam
[29] = tested on: Schaalia odontolytica; test: Antimicrobial activity against Actinomyces odontolyticus by Wadsworth agar dilution method in presence of beta-lactamase inhibitor Sulbactam
[30] = tested on: Fusobacterium varium; test: Antimicrobial activity against Fusobacterium varium by Wadsworth agar dilution method in presence of beta-lactamase inhibitor Sulbactam
[31] = tested on: Propionibacterium avidum; test: Antimicrobial activity against Propionibacterium avidum by Wadsworth agar dilution method in presence of beta-lactamase inhibitor Sulbactam; details: Cutibacterium avidum
[32] = tested on: Holdemania filiformis; test: Antimicrobial activity against Holdemania filiformis by Wadsworth agar dilution method in presence of beta-lactamase inhibitor Sulbactam
[33] = tested on: Clostridium bolteae; test: Antimicrobial activity against Clostridium bolteae by Wadsworth agar dilution method in presence of beta-lactamase inhibitor Sulbactam; details: Enterocloster bolteae
[34] = tested on: Clostridioides difficile; test: Antimicrobial activity against Clostridium difficile by Wadsworth agar dilution method in presence of beta-lactamase inhibitor Sulbactam

Question: Which results are given for `CC1(C)S[C@@H]2[C@H](NC(=O)[C@H](N)c3ccccc3)C(=O)N2[C@H]1C(=O)O` [AMPICILLIN]?
Answer: MIC50 [1]: 2 µg/mL; MIC90 [1]: 16 µg/mL; MIC [2]: 0.25 µg/mL; MIC50 [2]: 0.25 µg/mL; MIC90 [2]: 2 µg/mL; MIC [3]: 0.25 µg/mL; MIC50 [3]: 0.25 µg/mL; MIC90 [3]: 1 µg/mL; MIC [4]: 0.25 µg/mL; MIC50 [4]: 0.25 µg/mL; MIC90 [4]: 0.5 µg/mL; MIC [5]: 0.25 µg/mL; MIC50 [5]: 0.25 µg/mL; MIC90 [5]: 2 µg/mL; MIC50 [6]: 2 µg/mL; MIC90 [6]: 16 µg/mL; MIC [7]: 0.25 µg/mL; MIC50 [7]: 0.25 µg/mL; MIC90 [7]: 0.5 µg/mL; MIC [8]: 0.25 µg/mL; MIC50 [8]: 0.25 µg/mL; MIC90 [8]: 2 µg/mL; MIC [9]: 0.25 µg/mL; MIC50 [9]: 0.25 µg/mL; MIC90 [9]: 1 µg/mL; MIC [10]: 0.25 µg/mL; MIC50 [10]: 0.25 µg/mL; MIC90 [10]: 2 µg/mL; MIC50 [11]: 2 µg/mL; MIC90 [11]: 16 µg/mL; MIC50 [12]: 4 µg/mL; MIC90 [12]: 32 µg/mL; MIC [13]: 0.25 µg/mL; MIC50 [13]: 0.25 µg/mL; MIC90 [13]: 0.5 µg/mL; MIC50 [14]: 0.5 µg/mL; MIC90 [14]: 4 µg/mL; MIC [15]: 0.25 µg/mL; MIC50 [15]: 0.25 µg/mL; MIC90 [15]: 1 µg/mL; MIC [16]: 0.25 µg/mL; MIC50 [16]: 0.25 µg/mL; MIC90 [16]: 2 µg/mL; MIC [17]: 0.25 µg/mL; MIC50 [17]: 0.25 µg/mL; MIC90 [17]: 2 µg/mL; MIC [18]: 0.25 µg/mL; MIC50 [18]: 0.25 µg/mL; MIC90 [18]: 2 µg/mL; MIC [19]: 0.25 µg/mL; MIC50 [19]: 0.25 µg/mL; MIC90 [19]: 0.5 µg/mL; MIC [20]: 0.25 µg/mL; MIC50 [20]: 0.25 µg/mL; MIC90 [20]: 2 µg/mL; MIC [21]: 0.25 µg/mL; MIC50 [21]: 0.25 µg/mL; MIC90 [21]: 1 µg/mL; MIC [22]: 0.25 µg/mL; MIC50 [22]: 0.25 µg/mL; MIC90 [22]: 1 µg/mL; MIC [23]: 0.25 µg/mL; MIC50 [23]: 0.25 µg/mL; MIC90 [23]: 2 µg/mL; MIC [24]: 0.25 µg/mL; MIC50 [24]: 0.25 µg/mL; MIC90 [24]: 1 µg/mL; MIC50 [25]: 0.25 µg/mL; MIC90 [25]: 0.25 µg/mL; MIC [26]: 0.25 µg/mL; MIC50 [26]: 0.25 µg/mL; MIC90 [26]: 2 µg/mL; MIC [27]: 0.25 µg/mL; MIC50 [27]: 0.25 µg/mL; MIC90 [27]: 2 µg/mL; MIC [28]: 0.25 µg/mL; MIC50 [28]: 0.25 µg/mL; MIC90 [28]: 1 µg/mL; MIC [29]: 0.25 µg/mL; MIC50 [29]: 0.25 µg/mL; MIC90 [29]: 2 µg/mL; MIC50 [30]: 1 µg/mL; MIC90 [30]: 4 µg/mL; MIC [31]: 0.25 µg/mL; MIC50 [31]: 0.25 µg/mL; MIC90 [31]: 2 µg/mL; MIC [32]: 0.25 µg/mL; MIC50 [32]: 0.25 µg/mL; MIC90 [32]: 2 µg/mL; MIC [33]: 0.25 µg/mL; MIC50 [33]: 0.25 µg/mL; MIC90 [33]: 1 µg/mL; MIC50 [34]: 2 µg/mL; MIC90 [34]: 4 µg/mL
